Experimental data taken from US20070264349A1, “Nano-structured compositions and methods of making and using the same” (Novavax, Inc., priority 2006, published 2007).

Columns and labels:
[1] = cited from earlier work
[2] = Particle size measurement (Coulter particle sizer LS230); type: physicochemical; conditions: for mean size of nanoemulsion droplets comprising the active ingredient: after high-pressure homogenization, 10,000 psi (Examples 1, 2, 4); for particle size of a significant portion / almost all of the particles: formulations comprising ethanol (Tables 5 and 6), FIG. 10, FIG. 11; for mean particle size of raw active ingredient: before particle size reduction
Excerpt: A Coulter particle sizer LS230 was used to measure particle size.

[3] = after high-pressure homogenization (Examples 1, 4, 7)
[4] = after high-pressure homogenization, 10,000 psi (Examples 5, 6, 7)

| size below which 100% of the particles lie [2, 3] | mean size of nanoemulsion droplets comprising the active ingredient [2] | milled mean particle size [2, 4] | particle size of a significant portion / almost all of the particles [2] | mean particle size of raw active ingredient [2] | Molecule | solubility in water [1] | further results |
| --- | --- | --- | --- | --- | --- | --- | --- |
| – | – | – | – | 190-210 μm | NCCCC(O)(P(=O)(O)O)P(=O)(O)O [alendronic acid] | – | milled mean particle size ([2]; after high-pressure homogenization, 10,000 psi (Example 3)): about 0.2 μm |
| – | about 93 nm | – | – | about 542 microns | C[C@]12CC[C@@H]3c4ccc(O)cc4CC[C@H]3[C@@H]1CC[C@@H]2O [estradiol, estra-1,3,5(10)-triene-3,17β-diol] | – | – |
| below 10 microns | – | 2.79 microns | – | 15-30 μm | O=C(c1ccc(OCCN2CCCCC2)cc1)c1c(-c2ccc(O)cc2)sc2cc(O)ccc12 [raloxifene] | very slightly soluble | – |

The next lines start with the molecule.

| Molecule | size below which 100% of the particles lie [2, 3] | mean size of nanoemulsion droplets comprising the active ingredient [2] | milled mean particle size [2, 4] | particle size of a significant portion / almost all of the particles [2] | mean particle size of raw active ingredient [2] | solubility in water [1] | further results |
| --- | --- | --- | --- | --- | --- | --- | --- |
| CN1CCCC1c1cccnc1 (stereo not drawn) [Nicotine, S-3-(1-methyl-2-pyrrolidinyl) pyridine] | – | – | – | – | – | freely water-soluble | – |
| Nc1nc2c(ncn2COCCO)c(=O)[nH]1 [acyclovir, 2-amino-1,9-dihydro-9-[(2-hydroxyethoxy)methyl]-6H-purin-6-one] | less than 3 microns | 132 nm | about 2 microns | less than 0.1 microns | 54 μm | moderately soluble | size below which 100% of the particles lie ([2]; after particle size reduction (FIG. 2, FIG. 4)): less than 3 μm; particle size of a significant portion of the particles ([2]; formulation comprising N-methyl-pyrrolidinone (Table 4), FIG. 9, bimodal): less than 0.4 microns |
| [R—[R*,R*-(E)]]-cyclic(L-alanyl-D-alanyl-N-methyl-L-leucyl-N-methyl-L-leucyl-N-methyl-L-valyl-3-hydroxy-N, 4-dimethyl-L-2-amino-6-octenoyl-L-α-amino-butyryl-N-methylglycyl-N-methyl-L-leucyl-L-valyl-N-methyl-L-leucyl) [cyclosporine] | – | – | – | less than 1 microns | – | – | – |
